Data as given in US20120012822A1, “AROMATIC COMPOUND AND METHOD FOR PRODUCING SAME” (KEIO UNIVERSITY, priority 2009, published 2012).

How the values were obtained:
Solubility in hexane = format: physicochemical
Protocol: Next, 13.5 mg of 5,7,12,14-tetrakis(2-(triethylsilyl)ethyl)pentacene-6,13-dione was added to 51.6 mg of hexane at 22° C., and allowed to completely dissolve.
Next, 9.3 mg of a 1:1 mixture of 4,6,10,12-tetrakis(2-(triethylsilyl)ethyl)anthra[2,3-b : 6,7-b′]dithiophene-5,11-dione and 4,6,10,12-tetrakis(2-(triethylsilyl)ethyl)anthra[2,3-b:7,6-b′]dithiophene-5,11-dione was added to 180.1 mg of hexane at 26° C., and allowed to completely dissolve. The solubility in hexane was 5 wt %.

CC[Si](CC)(CC)CCc1c2c(c(CC[Si](CC)(CC)CC)c3ccccc13)C(=O)c1c(c(CC[Si](CC)(CC)CC)c3ccccc3c1CC[Si](CC)(CC)CC)C2=O [5,7,12,14-tetrakis(2-(triethylsilyl)ethyl)pentacene-6,13-dione]
solubility in hexane (Solubility in hexane): 26 wt % | melting point: 171 to 171.5 °C
